The values that follow come from paper PMC11093748, “De novo identification of CD4^+ T cell epitopes” (Nature Methods, 2024).

One test has as its system Jurkat cells, No TCR. Briefly: Single SABR-II co-incubation, background without TCR. It counts as cell-based, human. Conditions: No TCR, Ext. Data Fig. 6C, 18-20 hr. An excerpt:
(§1) We performed systematic screening of the cloned TCRs against the I-Ag7 SABR-II library. Several TCRs along with a positive control (such as BDC2.5 or 4-8Ins) were screened individually against the library for each sort (Extended Data Fig. 6a and Supplementary Table 4). High- and low-confidence ES zones for each screened TCR were defined by the ES values of the control TCR’s cognate epitopes. For all putative cognate epitopes, single SABR-IIs were constructed, expressed in NFAT–GFP Jurkat cells and used for co-incubation with the corresponding TCRs. Co-incubation assays that yielded a GFP signal higher than that obtained in assays with no TCR were determined to be positive and the epitopes deemed true cognate ligands (Extended Data Fig. 6b,c). Using this strategy, we obtained epitopes in the high-confidence zone for eight TCRs (Fig. 3a and Extended Data Fig. 6b,d). Among numerous altered peptide ligands (APLs), these TCRs recognized the physiological InsC-ChgA HIP ([…] and analogs, recognized by TCR5, TCR6B, TCR9 and TCR34), InsC-Iapp HIP ([…] and analogs, recognized by TCR4 and TCR15) and InsB9:23 ([…] and analogs recognized by TCR24 and TCR37). These cognate high-confidence hits were validated using single SABR-II co-incubation assays (Fig. 3b and Extended Data Fig. 7a). Further validations using in vitro mouse interleukin-2 (mIL-2) secretion by TCR-expressing 5KC reporter cells[13] or CD25 expression by TCR-expressing splenic CD4^+ T cells upon stimulation with the cognate epitope were performed (Extended Data Fig. 7b,c). Furthermore, low-confidence hits were called for ten TCRs and tested in co-incubation assays.
(§2) For SABR library screens, 3 × 10^6 NFAT–GFP Jurkat cells expressing the SABR library were labeled with CellTrace Violet (BioLegend) according to the manufacturer’s protocol before incubation with 3 × 10^6 Jurkat cells expressing the TCR of interest. These mixtures were incubated in a six-well plate for 16–20 h. Cells were stained with anti-CD69-APC-Cy7 where indicated (BioLegend) and the top 1–2% of GFP^+CD69^+ cells were sorted for genomic DNA extraction, indexing and sequencing (see below). Multiplexed assays were scaled on a per-TCR basis (for example 3 × 10^6 for each of three TCRs against 9 × 10^6 library cells). For single SABR assays, unless otherwise defined, 5 × 10^5 SABR expressing NFAT–GFP Jurkat cells (or 5KC cells) were labeled with CellTrace Violet (BioLegend) according to the manufacturer’s protocol before incubation with 5 × 10^5 TCR-expressing Jurkat cells (or 5KC cells) in a round-bottom 96-well plate for 16–20 h. Cells were stained with anti-CD69-APC-Cy7 when indicated and acquired on the Attune NxT flow cytometer (Thermo Fisher Scientific). All flow analysis was performed using FlowJo (BD). For Daudi cell co-culture, 1 × 10^6 Jurkat cells expressing the TCR of interest were incubated with 1 × 10^6 Daudi cells expressing a SABR of interest for 3 days. On day 3, cells were labeled with anti-RT1B-PE and anti-Fas-APC-Cy7 before being acquired on the Attune NxT flow cytometer.

A further test has as its system TCR5. Briefly: Single SABR-II co-incubation, NFAT-GFP Jurkat. It is filed as cell-based, mouse. The following applies: TCR 5, Ext. Data Fig. 6C, 18-20 hr.
Excerpt: as §1, §2

The next test relates to BDC2.5 TCR. Briefly: I-Ag7 SABR-II library screen, enrichment score. It counts as cell-based, mouse. The following applies: I-Ag7 library. From the text: We then asked whether SABR-IIs could be used to present a library of epitopes for CD4^+ T cell antigen discovery. To that end, we constructed a SABR-II library to present epitopes derived from pancreatic islets in I-Ag7 by curating a list of 4,075 published epitopes from the Immune Epitope Database (iedb.org)[50] and a study by Wan et al.[51] (Supplementary Table 1). Of note, this defined library consisted of unmodified epitopes from endogenous proteins, synthetic mimotopes, deamidated epitopes and hybrid insulin peptides (HIPs) that arise from post-translational fusion and are not genetically encoded in vivo[52],[53]. The epitope library was inserted into the I-Ag7 SABR-II backbone through pooled oligonucleotide synthesis, amplification and ligation-free cloning (Extended Data Fig. 3a). The I-Ag7 SABR-II-library was then expressed in NFAT–GFP Jurkat cells. We confirmed that after sequencing, the library accounted for a mean of 708 reads per epitope (Extended Data Fig. 3b). As a proof of concept, we performed co-incubation assays with Jurkat cells expressing the BDC2.5 TCR and sorted the top 1–2% of GFP^+CD69^+ cells at a rate of ~20 min per replicate with three replicates per TCR. We extracted the genomic DNA from sorted cells, amplified the SABR portion of the integrated proviruses and subjected the amplicons to Illumina sequencing (Extended Data Fig. 3c,d). The 1–2% sort gate represents >50-fold enrichment of cognate epitopes with minimal loss of signal (Extended Data Fig. 3e–h). Sequence reads were aligned to the I-Ag7 SABR-II backbone and the corresponding epitopes were scored based on their read counts. For each TCR under investigation, an enrichment score (ES) was determined for all the epitopes in a library. In each experiment, three replicates of a sort with TCR-expressing Jurkat cells were performed and reads were counted post-sequencing. In addition, three replicates of the unsorted library were also sequenced. A linear regression model was built using the unsorted library counts and used to determine the expected abundance of each epitope in the library. The ES was calculated based on the difference between the measured and the expected abundance of each epitope on a per-TCR basis (Fig. 1e). Based on ES values, two quantitative thresholds were used to determine putative cognate epitopes of a given TCR. A high-confidence zone containing clear outliers with a high ES and a low-confidence zone containing weak outliers with a moderately high ES were determined (Fig. 1e). This two-tiered strategy was used to call putative hits from screens. All the top-scoring epitopes for the BDC2.5 TCR were known BDC2.5 ligands containing the WXRM(D/E) motif (Fig. 1f,g, enriched ligands in red), a well-characterized trait of the BDC2.5 TCR[43],[54]–[56]. Across several independent experiments there was limited variation in ES values for the same TCRs and several epitopes fell into high- or low-confidence zones consistently (Extended Data Fig. 4a). Using a different TCR that was isolated from NOD mice, 4-8Ins[57], which recognized the InsB9:23 epitope ([…]), we observed a similar pattern of ES for cognate epitopes (Extended Data Fig. 4b).
For SABR library screens, 3 × 10^6 NFAT–GFP Jurkat cells expressing the SABR library were labeled with CellTrace Violet (BioLegend) according to the manufacturer’s protocol before incubation with 3 × 10^6 Jurkat cells expressing the TCR of interest. These mixtures were incubated in a six-well plate for 16–20 h. Cells were stained with anti-CD69-APC-Cy7 where indicated (BioLegend) and the top 1–2% of GFP^+CD69^+ cells were sorted for genomic DNA extraction, indexing and sequencing (see below). Multiplexed assays were scaled on a per-TCR basis (for example 3 × 10^6 for each of three TCRs against 9 × 10^6 library cells). […]

In a further test the test system is TCR4. Kind of test: Single SABR-II co-incubation, NFAT-GFP Jurkat. It counts as cell-based, mouse. Conditions: TCR 4, Ext. Data Fig. 6C, 18-20 hr.
Excerpt: as §1, §2

Setting [1] is: EXPT1 of 8 biological experiments.

EKAHHAIWARMDAKK: the “%GFP+CD69+ cells of SABR-NFAT-GFP-Jurkat cells” value (“%GFP+CD69+ cells” below) is 0.95% in the test on Jurkat cells, No TCR (technical replicate 1); 0.84% in the test on Jurkat cells, No TCR (technical replicate 2); 38% with TCR5 (technical replicate 1); 39.6% in the test on TCR5 (technical replicate 2).

As for EKAHHPIWARMDAKK, the “%GFP+CD69+ cells” value was 0.55% with Jurkat cells, No TCR (technical replicate 1); 0.54% with Jurkat cells, No TCR (technical replicate 2); 34.4% with TCR5 (technical replicate 1); 35.1% with TCR5 (technical replicate 2). The Enrichment score with BDC2.5 TCR (setting [1]) is listed as 0.000952; in the test on BDC2.5 TCR (EXPT2 of 8) it was 0.00052; in the test with BDC2.5 TCR (EXPT3 of 8), 0.00087; with BDC2.5 TCR (EXPT4 of 8) it was 0.00058; in the test with BDC2.5 TCR (EXPT5 of 8), 0.001178; in the test with BDC2.5 TCR (EXPT6 of 8), 0.001392. Also, the Enrichment score in the test on BDC2.5 TCR (EXPT7 of 8) amounted to 0.000919; in the test on BDC2.5 TCR (EXPT8 of 8), 0.000731.

EKAHLAIWARMDAKK: the “%GFP+CD69+ cells” value turned out to be 0.84% in the test on Jurkat cells, No TCR (technical replicate 1); 1% in the test with Jurkat cells, No TCR (technical replicate 2); 79.9% in the test on TCR5 (technical replicate 1); 77.9% in the test on TCR5 (technical replicate 2).

In the case of EKAHVPIWARMDAKK, the “%GFP+CD69+ cells” value in the test on Jurkat cells, No TCR (technical replicate 1) is given as 2.48%; in the test with Jurkat cells, No TCR (technical replicate 2), 2.95%; in the test with TCR5 (technical replicate 1), 29.9%; in the test on TCR5 (technical replicate 2), 30.2%. The Enrichment score was 0.000866 with BDC2.5 TCR (setting [1]); 0.000378 in the test with BDC2.5 TCR (EXPT2 of 8); 0.000722 with BDC2.5 TCR (EXPT3 of 8); 0.00038 in the test on BDC2.5 TCR (EXPT4 of 8); 0.000744 with BDC2.5 TCR (EXPT5 of 8); 0.001001 in the test on BDC2.5 TCR (EXPT6 of 8). For the same sequence, the values for the Enrichment score in the test with BDC2.5 TCR (EXPT7 of 8) and with BDC2.5 TCR (EXPT8 of 8) were 0.000451 and 0.000387, respectively.

PGAGDLQTLALNAARDP: the “%GFP+CD69+ cells” value is on record as 2.65% with Jurkat cells, No TCR (technical replicate 1); 2.56% in the test with Jurkat cells, No TCR (technical replicate 2); 20.2% with TCR4 (technical replicate 1); 20.4% with TCR4 (technical replicate 2).

Regarding RLGLWSRMDQLAKELTAE, the “%GFP+CD69+ cells” value came to 1.36% in the test on Jurkat cells, No TCR (technical replicate 1); 1.22% with Jurkat cells, No TCR (technical replicate 2); 56.2% with TCR5 (technical replicate 1); 56% with TCR5 (technical replicate 2). The Enrichment score in the test with BDC2.5 TCR (setting [1]) is listed as 0.001771; with BDC2.5 TCR (EXPT2 of 8), 0.001151; in the test with BDC2.5 TCR (EXPT3 of 8), 0.002655; in the test on BDC2.5 TCR (EXPT4 of 8), 0.001435; in the test with BDC2.5 TCR (EXPT5 of 8), 0.002428; in the test with BDC2.5 TCR (EXPT6 of 8), 0.00271. Moreover, the values for the Enrichment score with BDC2.5 TCR (EXPT7 of 8) and with BDC2.5 TCR (EXPT8 of 8) were 0.002468 and 0.002661, respectively.

For RRALQTLALNAARDP, the “%GFP+CD69+ cells” value with Jurkat cells, No TCR (technical replicate 1) is 4.17%; in the test with Jurkat cells, No TCR (technical replicate 2) it was 3.8%; in the test on TCR4 (technical replicate 1) it was 12.8%; in the test on TCR4 (technical replicate 2), 12.1%.

As for “SRLGLWARME [top putative hit of BDC2.5 TCR in I-Ag7 library]”, the Enrichment score with BDC2.5 TCR (setting [1]) came to 0.00089; in the test with BDC2.5 TCR (EXPT2 of 8) it was 0.000594; in the test on BDC2.5 TCR (EXPT3 of 8), 0.000983; with BDC2.5 TCR (EXPT4 of 8), 0.000723; in the test with BDC2.5 TCR (EXPT5 of 8), 0.000811; in the test with BDC2.5 TCR (EXPT6 of 8), 0.001313. The Enrichment score in the test with BDC2.5 TCR (EXPT7 of 8) was found to be 0.001203; in the test with BDC2.5 TCR (EXPT8 of 8), 0.001063.

For “SRLGLWVRMA [top putative hit of BDC2.5 TCR in I-Ag7 library]”, the Enrichment score is listed as 0.000692 in the test with BDC2.5 TCR (setting [1]); 0.000345 in the test on BDC2.5 TCR (EXPT2 of 8); 0.000603 in the test with BDC2.5 TCR (EXPT3 of 8); 0.000358 in the test on BDC2.5 TCR (EXPT4 of 8); 0.000683 with BDC2.5 TCR (EXPT5 of 8); 0.000858 in the test on BDC2.5 TCR (EXPT6 of 8). Moreover, the Enrichment score in the test on BDC2.5 TCR (EXPT7 of 8) is on record as 0.0006; with BDC2.5 TCR (EXPT8 of 8), 0.000465.

For “SRLGLWVRME [top putative hit of BDC2.5 TCR in I-Ag7 library]”, the Enrichment score is given as 0.000716 in the test on BDC2.5 TCR (setting [1]); 0.000449 in the test on BDC2.5 TCR (EXPT2 of 8); 0.000874 in the test on BDC2.5 TCR (EXPT3 of 8); 0.000616 with BDC2.5 TCR (EXPT4 of 8); 0.000562 with BDC2.5 TCR (EXPT5 of 8); 0.000596 in the test on BDC2.5 TCR (EXPT6 of 8). In addition, the results for the Enrichment score in the test on BDC2.5 TCR (EXPT7 of 8) and with BDC2.5 TCR (EXPT8 of 8) were 0.000875 and 0.000992, respectively.
